Source: EP0346187B1, “Novel GTP binding protein and method for production thereof” (MITSUBISHI KASEI CORPORATION, priority 1988, dated 1989)

Columns and labels:
[1] = molecular target: T1, G protein (Smg p21), molecular weight of 22,000, purified from bovine brain (Bos taurus, UniProt P62833); assay: GTP binding activity of purified G protein (Smg p21)
T1 construct: a crude membrane fraction was extracted with sodium cholate from bovine brain; from tissue; host or cells: bovine brain (crude membrane fraction, cholate extract)
T1 sequence (P62833 1-181 limits assumed): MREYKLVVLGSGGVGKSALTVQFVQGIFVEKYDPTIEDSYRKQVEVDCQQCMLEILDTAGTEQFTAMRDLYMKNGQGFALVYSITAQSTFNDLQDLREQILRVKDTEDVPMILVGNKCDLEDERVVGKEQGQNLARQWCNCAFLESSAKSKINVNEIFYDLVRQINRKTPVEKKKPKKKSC
From the text: (§1) • (a) Crude G protein with molecular weight (relative molecular weight : Mr) of 20,000 to 25,000 was obtained in accordance with the method of Kikuchi, et al. (Journal of the Biological Chemistry, 263, p 2897 - 2904, 1988). Specifically, a crude membrane fraction was extracted with sodium cholate from bovine brain, and the fraction was fractionated on Ultrogel AcA-44 column chromatography to separate and obtain a fraction at the second peak among two peaks showing GTP binding activity. The fraction thus obtained was purified on phenyl Sepharose CL-4B column chromatography and then further fractionated on hydroxyapatite column chromatography to separate and obtain a fraction at the first peak. Then, the first peak fraction was fractionated on Mono Q HR 5/5 column chromatography and the fraction at the first peak was separated and collected to obtain a crude G protein with Mr of 20,000 - 25,000. • (b) The crude G protein obtained in (a) above was subjected to Mono S HR 5/5 column chromatography equilibrated with a buffer solution of 50 mM sodium acetate (pH, 5.0) containing 1 mM EDTA, 1mM dithiothreitol, 5 mM magnesium chloride and 0.6 % CHAPS (3- [(3-cholamidopropyl) dimethylammonio]-1-propane sulfonate). After washing with 5 ml of the same buffer solution, it was eluted out by the same buffer solution (20 ml) with a concentration gradient of sodium chloride (0 - 1.0 M). […]

[2] = molecular target: T1, G protein (Smg p21), molecular weight of 22,000, purified from bovine brain; assay: GTP hydrolyzing activity of purified G protein (Smg p21); type: biochemical
From the text: as §1

SMILES	Kd ([1]; purified G protein (Smg p21) from bovine brain)	GTP Hydrolyzing Activity (number of turnovers) [2]	Effect of N-ethylmaleimide on GTP Binding Activity ([1]; no concentration stated, presence of dithiothreitol blocks the inhibition)
Nc1nc2c(ncn2[C@@H]2O[C@H](COP(=O)(O)OP(=O)(O)OP(=O)(O)O)[C@@H](O)[C@H]2O)c(=O)[nH]1 [GTP, guanosine-5-triphosphate]	30 ± 6 nM	0.005 min⁻¹	–
CCN1C(=O)C=CC1=O [N-ethylmaleimide]	–	–	inhibited
